Source: PMC10840709 (Cell chemical biology, 2023)

Columns and labels:
[1] = molecular target: CSNK2A2 (Homo sapiens, UniProt P19784); experiment: HotSpot […]-ATP kinase assay; assay type: biochemical
[2] = molecular target: BRAF V600E (Homo sapiens, UniProt P15056, V600E); experiment: NanoBRET target engagement in HEK293 cells; assay type: cell-based
[3] = molecular target: BRAF (Homo sapiens, UniProt P15056); experiment: HotSpot […]-ATP kinase assay; assay type: biochemical
BRAF, sequence (P15056 2-766): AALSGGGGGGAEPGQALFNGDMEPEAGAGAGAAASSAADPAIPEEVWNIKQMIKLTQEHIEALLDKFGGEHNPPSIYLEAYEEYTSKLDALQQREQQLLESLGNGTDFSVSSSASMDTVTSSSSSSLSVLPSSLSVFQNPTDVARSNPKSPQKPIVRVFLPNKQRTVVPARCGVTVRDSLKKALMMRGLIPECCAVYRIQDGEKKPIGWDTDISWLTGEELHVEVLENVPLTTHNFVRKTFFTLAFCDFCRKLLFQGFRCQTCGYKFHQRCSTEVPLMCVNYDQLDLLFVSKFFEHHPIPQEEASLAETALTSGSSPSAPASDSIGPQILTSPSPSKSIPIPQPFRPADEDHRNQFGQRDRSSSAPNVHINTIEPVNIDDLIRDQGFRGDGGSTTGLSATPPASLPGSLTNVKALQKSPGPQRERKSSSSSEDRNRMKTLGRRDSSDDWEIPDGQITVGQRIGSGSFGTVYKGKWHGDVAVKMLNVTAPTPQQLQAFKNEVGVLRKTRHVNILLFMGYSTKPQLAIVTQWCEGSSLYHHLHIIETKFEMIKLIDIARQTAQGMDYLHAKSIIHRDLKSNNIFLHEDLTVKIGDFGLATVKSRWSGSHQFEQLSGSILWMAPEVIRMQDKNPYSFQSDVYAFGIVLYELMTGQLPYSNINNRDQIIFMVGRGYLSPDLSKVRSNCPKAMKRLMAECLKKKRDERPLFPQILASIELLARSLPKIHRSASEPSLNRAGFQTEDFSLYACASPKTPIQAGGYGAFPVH

CSNK2A2, sequence (P19784 whole entry): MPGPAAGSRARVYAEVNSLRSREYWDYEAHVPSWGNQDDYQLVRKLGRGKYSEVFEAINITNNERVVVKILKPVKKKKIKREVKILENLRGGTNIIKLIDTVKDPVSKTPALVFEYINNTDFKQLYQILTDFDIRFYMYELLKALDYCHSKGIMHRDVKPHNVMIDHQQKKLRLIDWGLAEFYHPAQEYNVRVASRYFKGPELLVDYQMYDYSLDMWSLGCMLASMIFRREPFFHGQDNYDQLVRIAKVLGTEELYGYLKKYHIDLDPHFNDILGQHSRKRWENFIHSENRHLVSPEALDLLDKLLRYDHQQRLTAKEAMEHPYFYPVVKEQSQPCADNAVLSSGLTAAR
BRAF V600E, sequence (P15056 2-766 V600E): as the sequence (P15056 2-766) above, with V599E counted along it

| Structure (SMILES) | IC50 [1] [nM] | IC50 [2] [nM] | IC50 [3] [nM] |
| --- | --- | --- | --- |
| CCN1CCN(Cc2ccc(Nc3ncc(F)c(-c4cc(F)c5nc(C)n(C(C)C)c5c4)n3)nc2)CC1 [abemaciclib] | 36.4 | – | – |
| Cc1ccc(NC(=O)c2ccc(CN3CC[C@H](N(C)C)C3)c(C(F)(F)F)c2)cc1Nc1nccc(-c2cncnc2)n1 [bafetinib] | – | 217 | 41.6 |
